Experiments:
SH-SY5Y cells = experiment: Cell viability of SH-SY5Y cells by MTT (toxicity check); settings: undifferentiated SH-SY5Y, 70 µM of OA, 24 h
[1] = PAMPA-BBB parallel artificial membrane permeability assay; assay type: in vitro ADME, porcine; settings: pig, pH 7.4, PBS:EtOH (70:30) as solvent, mean ± SD of 2 independent experiments, 2 h 30 min at 25 °C, read-out: Pe
Procedure: Filter PDVF membrane units (diameter 30 mm, pore size 0.45 μm) from Symta were used to filter the samples. A 96-well plate UV reader (Thermoscientific, Multiskan spectrum) was used for the UV measurements. […] These solutions were filtered. […] Then the donor plate was carefully put on the acceptor plate to form a “sandwich”, which was left undisturbed for 2 h and 30 min at 25 °C. […] During this time the compounds diffused from the donor plate through the brain lipid membrane into the acceptor plate. After incubation, the donor plate was removed. UV plate reader determined the concentration of compounds and commercial drugs in the acceptor and the donor wells. […] 10 quality control compounds (previously mentioned) of known BBB permeability were included in each experiment to validate the analysis set.

| SMILES | decrease of cell viability (SH-SY5Y cells) | Papp at […] [1] [×10⁻⁶ cm/s] |
| --- | --- | --- |
| C=C1[C@@H](O)[C@@H]2O[C@]3(CC[C@H](/C=C/[C@@H](C)[C@@H]4CC(C)=C[C@@]5(O[C@H](C[C@@](C)(O)C(=O)O)CC[C@H]5O)O4)O3)CC[C@H]2O[C@@H]1[C@@H](O)C[C@H](C)[C@H]1O[C@@]2(CCCCO2)CC[C@H]1C [OA, okadaic acid] | about 43% |  |
| CN1C(C(=O)Nc2ccccn2)=C(O)c2ccccc2S1(=O)=O [Piroxicam] |  | 0.6 ± 0.8 |
| CN(C)CCCN1c2ccccc2Sc2ccccc21 [Promazine] |  | 12 ± 0.9 |
